Here are results for 50 compounds from US8614242B2, “1-(heterocyclic carbonyl)-2-substituted pyrrolidines” (Bayer Intellectual Property GmbH, priority 2010, dated 2013).

Data set [1] in a line: logP by HPLC on reversed-phase column (EEC Directive 79/831 Annex V.A8). Particulars: HPLC on reversed-phase column (C 18), 40° C., 0.1% aqueous formic acid and acetonitrile, linear gradient 10% to 90% acetonitrile. Format: physicochemical. The method, then: In table 1, the logP values were determined in accordance with EEC Directive 79/831 Annex V.A8 by HPLC (High Performance Liquid Chromatography) on a reversed-phase column (C 18), using the method described below: Temperature: 40° C.; Mobile phases: 0.1% aqueous formic acid and acetonitrile; linear gradient from 10% acetonitrile to 90% acetonitrile. Calibration was carried out using unbranched alkan-2-ones (comprising 3 to 16 carbon atoms) with known logP values (determination of the logP values by the retention times using linear interpolation between two successive alkanones). lambda-max-values were determined using UV-spectra from 200 nm to 400 nm and the peak values of the chromatographic signals.

A further data set concerns Sphaerotheca fuliginea. Briefly: In vivo preventive test on Sphaerotheca fuliginea (cucumber). The following applies: 500 ppm of active ingredient, evaluated 7 days after inoculation.
In a further data set the test system is Pyrenophora teres. As to the kind of experiment: In vivo preventive test on Pyrenophora teres (barley). Particulars: 500 ppm of active ingredient, evaluated 7-9 days after inoculation. The method, then:
The plants remain for 48 hours in an incubation cabinet at 22° C. and a relative atmospheric humidity of 100%.

Another data set concerns Alternaria solani. Briefly: In vivo preventive test on Alternaria solani (tomato). The following applies: 500 ppm of active ingredient, evaluated 7 days after inoculation. The method, then: The plants remain for one day in an incubation cabinet at approximately 22° C. and a relative atmospheric humidity of 100%. Then the plants are placed in an incubation cabinet at approximately 20° C. and a relative atmospheric humidity of 96%.

What is called logP is a log measure of how a compound divides between an organic and an aqueous phase. A higher logP goes with a more lipophilic compound. On to `CC(c1ccccc1Cl)C1CCCN1C(=O)c1c(C(F)F)nn(C)c1F` (mixture of isomers) [Example 62], for which the logP in data set [1] came to 3.29.
For the compound `CC(c1ccccc1Cl)C1CCCN1C(=O)c1c(C(F)F)nn(C)c1Cl` (mixture of isomers) [Example 63], in data set [1], the logP is given as 3.46.
Still for that read-out and setting: to `CC(c1ccc(Cl)cc1Cl)C1CCCN1C(=O)c1c(C(F)F)nn(C)c1F` (mixture of isomers) [Example 71] belongs 3.87.
As for `CC(c1ccc(Cl)cc1Cl)C1CCCN1C(=O)c1c(C(F)F)nn(C)c1Cl` (mixture of isomers) [Example 72], in data set [1], the logP was found to be 4.06.
`CC(c1cc(Cl)ccc1Cl)C1CCCN1C(=O)c1c(C(F)F)nn(C)c1F` (mixture of isomers) [Example 73]: the logP in data set [1] was 3.76.
Same read-out and setting: to `CC(c1cc(Cl)ccc1Cl)C1CCCN1C(=O)c1c(C(F)F)nn(C)c1Cl` (mixture of isomers) [Example 74] belongs 3.96; to `CC(c1c(Cl)cccc1Cl)C1CCCN1C(=O)c1c(C(F)F)nn(C)c1F` (mixture of isomers) [Example 78], 3.52.
Same read-out and setting: in the case of `CC(c1c(Cl)cccc1Cl)C1CCCN1C(=O)c1c(C(F)F)nn(C)c1Cl` (mixture of isomers) [Example 79] it was 3.81.
As to `Cn1nc(C(F)F)c(C(=S)N2CCCC2Cc2ccccc2Cl)c1F` (racemic) [Example 61], the Efficacy in the data set on Sphaerotheca fuliginea is given as 95%; with Pyrenophora teres, 100%; with Alternaria solani it was 100%. Besides, the logP in data set [1] amounted to 3.83.
`Cn1nc(C(F)F)c(C(=O)N2CCCC2Cc2ccc(C(C)(C)C)cc2)c1F` (racemic) [Example 68] had a logP in data set [1] of 4.24. For the same compound, the Efficacy in the data set with Pyrenophora teres stood at 100%; in the data set on Alternaria solani, 94%.
The matching figures for `Cn1nc(C(F)F)c(C(=S)N2CCCC2Cc2cccc(Cl)c2Cl)c1F` (racemic) [Example 70]: 4.46, 100% and 95%.
The matching figures for `Cn1nc(C(F)F)c(C(=O)N2CCCC2Cc2c(Cl)cccc2Cl)c1Cl` (racemic) [Example 75]: 3.50, 100% and 90%.
Compound `Cn1nc(C(F)F)c(C(=O)N2CCCC2Cc2cccc3ccccc23)c1F` (racemic) [Example 83] displayed a logP in data set [1] of 3.52. Besides, the Efficacy with Pyrenophora teres and in the data set on Alternaria solani was 100% throughout.
As to `Cn1nc(C(F)F)c(C(=O)N2CCCC2CCc2ccccc2)c1F` (racemic) [Example 84], the logP in data set [1] came out at 3.02. Further, the values for the Efficacy in the data set with Pyrenophora teres and in the data set on Alternaria solani were 100% and 90%, respectively.
In the case of `Cn1nc(C(F)F)c(C(=O)N2CCCC2CS(=O)(=O)c2ccccc2)c1F` (racemic) [Example 87], in data set [1], the logP is listed as 2.13.
On the same count and under the same terms, in the case of `Cn1nc(C(F)F)c(C(=O)N2CCCC2CS(=O)(=O)c2ccccc2)c1Cl` (racemic) [Example 88] it was 2.20.
For the compound `Cc1ccccc1C1CCCN1C(=O)c1c(C(F)F)nn(C)c1Cl` (stereo not shown) [Example 1], the logP in data set [1] turned out to be 2.90. The Efficacy with Pyrenophora teres and in the data set with Alternaria solani was 80% throughout.
For the compound `COc1ccccc1C1CCCN1C(=O)c1c(C(F)F)nn(C)c1F` (stereo not shown) [Example 3], the logP in data set [1] is on record as 2.59. The same compound displayed an Efficacy with Alternaria solani of 80%.
As to `COc1ccc(C2CCCN2C(=O)c2c(C(F)F)nn(C)c2F)cc1` (stereo not shown) [Example 4], the logP in data set [1] amounted to 2.42. This compound also returned an Efficacy in the data set on Alternaria solani of 80%.
In the case of `Cn1nc(C(F)F)c(C(=O)N2CCCC2c2ccccc2Cl)c1Cl` (stereo not shown) [Example 5], the logP in data set [1] was 3.04. Also, the Efficacy with Pyrenophora teres and in the data set with Alternaria solani was 80% in each case.
As to `Cn1nc(C(F)F)c(C(=O)N2CCCC2c2ccc(Cl)cc2)c1Cl` (stereo not shown) [Example 7], in data set [1], the logP is listed as 3.04. Besides, the Efficacy in the data set with Pyrenophora teres is given as 70%; in the data set on Alternaria solani, 95%.
The matching figures for `Cn1nc(C(F)F)c(C(=O)N2CCCC2c2ccc(Cl)cc2)c1F` (stereo not shown) [Example 8]: 2.90, 100% and 100%.
On to `Cn1nc(C(F)F)c(C(=O)N2CCCC2c2cc(F)cc(F)c2)c1Cl` (stereo not shown) [Example 9], for which, in data set [1], the logP amounted to 2.82. This compound also came in with an Efficacy with Pyrenophora teres of 90%.
On to `Cn1nc(C(F)F)c(C(=O)N2CCCC2c2ccc3c(c2)OCO3)c1F` (stereo not shown) [Example 11], for which the logP in data set [1] worked out at 2.35. This compound also showed an Efficacy in the data set with Pyrenophora teres of 70%.
`Cn1nc(C(F)F)c(C(=O)N2CCCC2c2ccc(C(C)(C)C)cc2)c1Cl` (stereo not shown) [Example 12] gave a logP in data set [1] of 3.90. Moreover, the Efficacy with Pyrenophora teres stood at 95%; with Alternaria solani, 90%.
The matching figures for `Cn1nc(C(F)F)c(C(=O)N2CCCC2c2ccccc2C(F)(F)F)c1Cl` (stereo not shown) [Example 14]: 3.19, 90% and 95%.
The matching figures for `Cn1nc(C(F)F)c(C(=O)N2CCCC2c2ccccc2C(F)(F)F)c1F` (stereo not shown) [Example 15]: 3.09, 100% and 95%.
`Cn1nc(C(F)F)c(C(=S)N2CCCC2c2cccc(C(F)(F)F)c2)c1Cl` (stereo not shown) [Example 19]: the logP in data set [1] amounted to 3.79. For the same compound, the Efficacy with Pyrenophora teres was determined as 100%.
The compound `Cn1nc(C(F)F)c(C(=O)N2CCCC2c2ccc(C(F)(F)F)cc2)c1Cl` (stereo not shown) [Example 20] had a lipophilicity (logP) in data set [1] of 3.25. Moreover, the Efficacy with Pyrenophora teres and in the data set with Alternaria solani was 70% in each case.
`Cn1nc(C(F)F)c(C(=O)N2CCCC2c2ccc(Cl)cc2Cl)c1Cl` (stereo not shown) [Example 23] had a logP in data set [1] of 3.57. In addition, the Efficacy in the data set on Pyrenophora teres amounted to 100%; in the data set on Alternaria solani, 95%.
The matching figures for `Cn1nc(C(F)F)c(C(=O)N2CCCC2c2ccc(Cl)c(Cl)c2)c1Cl` (stereo not shown) [Example 25]: 3.37, 95% and 95%.
The matching figures for `Cn1nc(C(F)F)c(C(=O)N2CCCC2c2ccc(-c3ccccc3)cc2)c1F` (stereo not shown) [Example 29]: 3.50, 100% and 95%.
`Cn1nc(C(F)F)c(C(=O)N2CCCC2c2ccc(-c3ccccc3)cc2)c1Cl` (stereo not shown) [Example 30] displayed a logP in data set [1] of 3.65. Besides, the Efficacy with Pyrenophora teres stood at 100%.
For the compound `Cn1nc(C(F)F)c(C(=O)N2CCCC2c2ccccc2Br)c1Cl` (stereo not shown) [Example 31], in data set [1], the logP was 3.09. Moreover, the values for the Efficacy in the data set with Pyrenophora teres and in the data set with Alternaria solani were 95% and 90%, respectively.
The matching figures for `Cn1nc(C(F)F)c(C(=O)N2CCCC2c2cccc(Br)c2)c1Cl` (stereo not shown) [Example 33]: 3.06, 100% and 95%.
The matching figures for `Cn1nc(C(F)F)c(C(=O)N2CCCC2c2cc(C(F)(F)F)cc(C(F)(F)F)c2)c1Cl` (stereo not shown) [Example 40]: 3.79, 95% and 95%.
Consider `Cn1nc(C(F)F)c(C(=O)N2CCCC2c2cccc3ccccc23)c1F` (stereo not shown) [Example 41], for which the Efficacy in the data set on Sphaerotheca fuliginea stood at 75%; with Pyrenophora teres, 90%. The compound also showed a logP in data set [1] of 3.08.
In turn, `Cn1nc(C(F)F)c(C(=O)N2CCCC2c2ccco2)c1F` (stereo not shown) [Example 42] came in with a lipophilicity (logP) in data set [1] of 2.13.
On the same count and under the same terms, to `Cn1nc(C(F)F)c(C(=O)N2CCCC2c2ccccn2)c1F` (stereo not shown) [Example 43] belongs 0.92; to `Cn1nc(C(F)F)c(C(=O)N2CCCC2c2cccnc2)c1F` (stereo not shown) [Example 44], 0.48.
In data set [1], `Cn1nc(C(F)F)c(C(=O)N2CCCC2c2cccs2)c1F` (stereo not shown) [Example 45] showed a logP of 2.39. Besides, the Efficacy with Pyrenophora teres is listed as 95%; in the data set on Alternaria solani it was 90%.
For `Cn1nc(C(F)F)c(C(=O)N2CCCC2c2cnc3ccccc3c2)c1F` (stereo not shown) [Example 46], the logP in data set [1] came to 1.50.
The same measure, in the same setting: to `Cn1nc(C(F)F)c(C(=O)N2CCCC2c2ccc3ncccc3c2)c1F` (stereo not shown) [Example 47] belongs 1.14.
On to `Cn1nc(C(F)F)c(C(=O)N2CCCC2c2cc3ccccc3s2)c1F` (stereo not shown) [Example 48], for which the Efficacy with Sphaerotheca fuliginea was 93%; in the data set with Pyrenophora teres it was 100%. In data set [1], this compound gave a logP of 3.11.
In turn, `Cn1nc(C(F)F)c(C(=O)N2CCCC2c2cc3ccccc3s2)c1Cl` (stereo not shown) [Example 49] came in with a logP in data set [1] of 3.25. For the same compound, the Efficacy with Pyrenophora teres amounted to 95%.
For `Cn1nc(C(F)F)c(C(=O)N2CCCC2c2nc3ccccc3s2)c1Cl` (stereo not shown) [Example 50], the logP in data set [1] stood at 2.61.
As to `Cn1nc(C(F)F)c(C(=O)N2CCCC2c2nc3ccccc3s2)c1F` (stereo not shown) [Example 51], the logP in data set [1] is on record as 2.49. In the data set on Pyrenophora teres, this compound returned an Efficacy of 95%.
Turning to `Cn1nc(C(F)F)c(C(=O)N2CCC[C@H]2COc2c(Cl)cc(Cl)cc2Cl)c1Cl` [Example 81], the Efficacy with Sphaerotheca fuliginea is given as 100%. In addition, the logP in data set [1] was determined as 4.36.
Regarding `Cn1nc(C(F)F)c(C(=O)N2CCC[C@H]2COc2ccc(Cl)cc2)c1F` [Example 85], the logP in data set [1] was determined as 3.29.
The same measure, in the same setting: in the case of `Cn1nc(C(F)F)c(C(=O)N2CCC[C@H]2COc2ccc(Cl)cc2)c1Cl` [Example 86] it was 3.44.
